# Literature values, collected in EP0467998B1, “PEPTIDES FROM RETINOBLASTOMA GENE PRODUCTS AND ANTIBODIES THERETO” (BAYLOR COLLEGE OF MEDICINE, priority 1989, dated 1990).
# Settings: individual amino acid, Hopp and Woods (1981)
row,Compound,Hydrophilicity Value
1,N[C@@H](CO)C(=O)O [Ser],0.3
2,C[C@@H](O)[C@H](N)C(=O)O [Thr],-0.4
3,NC(=O)C[C@H](N)C(=O)O [Asn],0.2
4,N[C@@H](Cc1c[nH]c2ccccc12)C(=O)O [Trp],-3.4
5,N[C@@H](Cc1ccccc1)C(=O)O [Phe],-2.5
6,N[C@@H](Cc1ccc(O)cc1)C(=O)O [Tyr],-2.3
7,O=C(O)[C@@H]1CCCN1 [Pro],0.0
8,CSCC[C@H](N)C(=O)O [Met],-1.3
9,NCC(=O)O [Gly],0.0
10,N[C@@H](CCC(=O)O)C(=O)O [Glu],3.0
11,N[C@@H](CS)C(=O)O [Cys],-1.0
12,N[C@@H](CC(=O)O)C(=O)O [Asp],3.0
13,NCCCC[C@H](N)C(=O)O [Lys],3.0
14,N=C(N)NCCC[C@H](N)C(=O)O [Arg],3.0
15,CC(C)[C@H](N)C(=O)O [Val],-1.5
16,N[C@@H](Cc1c[nH]cn1)C(=O)O [His],-0.5
17,CC[C@H](C)[C@H](N)C(=O)O [Ile],-1.8
18,C[C@H](N)C(=O)O [Ala],-0.5
